The numbers were not newly measured in US9862672B2, “Antioxidant-based poly(anhydride-esters)” (RUTGERS, THE STATE UNIVERSITY OF NEW JERSEY, priority 2013, dated 2018), which cites them from elsewhere.

For the data set the following is noted: in vivo.

Take `COc1cc(/C=C/C(=O)O)ccc1O` [Ferulic acid]: the Elimination half-life entry is “less than 2 hours”.
